Data reported in patent US20220079962A1, “NUTRITIONAL COMPOSITION COMPRISING 2'FUCOSYLLACTOSE AND DIETARY BUTYRATE” (N.V. Nutricia, priority 2019, published 2022).

Experiments:
[1] = system: Salmonella enteriditis S29; assay: Fecal slurry fermentation spiked with pathogens, Salmonella growth
Protocol: In addition the test legs were supplemented with Clostridium difficile C153 (difficile agar), Salmonella enteriditis S29 (XLD agar), Cronobacter sakasakii E71 (chromogenic agar) or Klebsiella pneumonia K2 (Simons citrate inositol agar). For every NDO and for the control also a pathogen free culture was prepared.
The experiment was started, and pH setpoint was either 5.5 (facial inoculum from infant 1, vaginally born, breast fed) or pH 6.0 (Inoculum from infant 2, vaginally born, breast fed) with continuous pH regulation, and temperature 37° C., humidity 85%, OD control. At 4, 8 and 24 hours a sample is taken for CFU determination on TOS-propionate MUP agar (total Bifidobacteria), XLD agar for Salmonella enteriditis S29, and Simons citrate inositol agar for Klebsiella pneumonia K2 and for SCFA, D- and L Lactate and ammonia analysis. Fecal pellet was used for 16s DNA sequencing. For both inocula the extent of fermentation, as measured by NaOH consumption, i.e. acid production, was highest with the combination of 3′-GU2′-FL, when compared to 3′-GL or 2′-FL alone. The rate of initial acidification was high for 3′-GL and for 3′-GL/2′-FL. […] As the amount of carbohydrates that can be fermented is the same in the reaction vessels, the higher total acidification with the combination is indicative for an unexpected, synergistic effect of the combination of 2′-FL and 3′-GL. […]

[2] = system: infant intestinal microbiota; assay: quad-SHIME model of infant intestinal microbiota (SCFA, glycoprofile); parameters: species or system human; Butyrate (Mean ± SD) / Iso-Butyrate (Mean ± SD) / Acetate (Mean ± SD): unit not given here; conditions: distal colon
Excerpt: A faecal sample from a healthy infant born via C-section, exclusively breastfed with no history of antibiotic usage, was used as inoculum to simulate the infant intestinal microbiota in the colon compartments of a quad-SHIME®—a dynamic model of the human gastrointestinal tract comprises 4 SHIME® units running in parallel and each SHIME® unit is composed of 3 reactors simulating the stomach and small intestine, proximal and distal colons.

C[C@@H]1O[C@@H](O[C@H]2[C@H](O[C@H]3[C@H](O)[C@@H](O)C(O)O[C@@H]3CO)O[C@H](CO)[C@H](O)[C@@H]2O)[C@@H](O)[C@H](O)[C@@H]1O (stereo partly drawn) [2′-FL, α-L-Fuc-(1→2)-β-D-Gal-(1→4)-D-Glc]
Salmonella growth ([1]; inoculum of baby 1): most restricted
Salmonella growth ([1]; inoculum of baby 2): most restricted
butyrate generation relative to the control and the scGOS/IcFOS groups [2]: generated earlier in the distal colon and at a higher concentration
Acetate (Mean ± SD) ([2]; D 1-D 3): 38.67 ± 10.25
Butyrate (Mean ± SD) ([2]; D 1-D 3): 0 ± 0
Iso-Butyrate (Mean ± SD) ([2]; D 1-D 3): 0 ± 0
Propionate (Mean ± SD) ([2]; D 1-D 3): 10.17 ± 3.01
Acetate (Mean ± SD) ([2]; D 4-D 11): 26.22 ± 0.97
Butyrate (Mean ± SD) ([2]; D 4-D 11): 0.74 ± 0.49
Iso-Butyrate (Mean ± SD) ([2]; D 4-D 11): 0.68 ± 0.75
Propionate (Mean ± SD) ([2]; D 4-D 11): 6.58 ± 0.49
Acetate (Mean ± SD) ([2]; D 12-D 15): 22.96 ± 1.04
Butyrate (Mean ± SD) ([2]; D 12-D 15): 0.99 ± 0.09
Iso-Butyrate (Mean ± SD) ([2]; D 12-D 15): 0.93 ± 0.21
Propionate (Mean ± SD) ([2]; D 12-D 15): 6.13 ± 0.63
